Results: paper PMC5161541 (Nuclear medicine and biology, 2016)
Where two headings read alike, the source gives them in different places.

Assays:
[1] = biological target: sites labeled by [125I]-E-IA-BF-PIPZE (σ1 receptors) (Mus musculus, UniProt O55242); format: binding
σ1 receptors [2] = biological target: T1, σ1 receptors (Mus musculus, UniProt O55242); conditions: 100 μmol / kg, i.p.; cited from earlier work
σ1 receptors [3] = biological target: T1, σ1 receptors; test: In vivo specific binding and blocking by pretreatment with σ receptor ligands; conditions: for adverse effects or abnormal behaviors: mice
σ1 receptors [4] = biological target: T1, σ1 receptors; test: Regional brain distribution with blocking pretreatments; format: in vivo, CD-1 mouse; conditions: 2.5 μmol / kg i.v., 60 min, nine regions
[5] = biological target: vesicular acetylcholine transporter (VAChT); conditions: read-out: apparent affinity for VAChT in vitro; cited from earlier work
σ1 receptors [6] = conditions: cited from earlier work
cerebral σ1 receptors = conditions: over 30 h, SPECT; cited from earlier work
σ1 receptors [7] = biological target: T1, σ1 receptors; format: binding; conditions: read-out: kinetically determined Kd (koff / kon); from rate constants
σ1 receptors [8] = biological target: T1, σ1 receptors; test: Competition binding against [3H]-PTZ in mouse brain membranes; conditions: read-out: Sigma-1 Ki; [3H]-PTZ, mouse brain membranes; mean ± SEM, n = 4
[9] = 0.1 nM [125I]-E-IA-BF-PIPZE, 37 °C, 180 min, means ± SEM (n = 3 – 6)
[10] = Cheng-Prusoff, 0.1 nM [125I]-E-IA-BF-PIPZE, means ± SEM (n = 3 – 6)

Chain of sites labeled by [125I]-E-IA-BF-PIPZE (σ1 receptors) (O55242 whole entry): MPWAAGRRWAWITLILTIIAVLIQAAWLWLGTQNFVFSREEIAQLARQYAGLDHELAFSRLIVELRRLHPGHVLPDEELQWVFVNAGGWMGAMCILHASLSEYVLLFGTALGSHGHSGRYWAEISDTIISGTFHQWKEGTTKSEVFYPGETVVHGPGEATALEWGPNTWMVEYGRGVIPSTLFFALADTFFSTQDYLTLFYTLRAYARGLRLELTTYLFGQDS
T1 sequence (O55242 whole entry): as above

SMILES: CC(C)=CCN1CC[C@]2(C)c3cc(O)ccc3C[C@H]1[C@H]2C [(+)-Pentazocine, (+)-pentazocine]
- Hill (nH) ([1]; means ± SEM (n = 3 – 6)): 0.9 ± 0.1

SMILES: COC(=O)[C@H]1[C@@H](OC(=O)c2ccccc2)C[C@@H]2CC[C@H]1N2C [(−)-cocaine]
- inhibition of [125I]-E-IA-DM-PE-PIPZE uptake (σ1 receptors [2]): 50%

SMILES: CN1CCN(CCc2ccc(Cl)c(Cl)c2)CC1 [BD1063]
- adverse effects or abnormal behaviors (σ1 receptors [3]; 2.5 μmol / kg i.v.): No adverse effects or abnormal behaviors
- radioactivity in the blood after pretreatment (σ1 receptors [3]; 60 min, blocker 2.5 μmol / kg i.v.): 0.76 ± 0.04 %ID / g
- IC50 [1, 9]: 13.6 ± 0.7 nM
- Ki [1, 10]: 9.6 ± 0.5 nM
- Hill (nH) ([1]; means ± SEM (n = 3 – 6)): 1.3 ± 0.1

SMILES: COc1cc2c(cc1OC)CN(CCCCNC(=O)c1cc(Br)cc(OC)c1OC)CC2 [Br-Mach, reference compound]
- reduction of radioligand uptake across brain regions (σ1 receptors [4]): minimal but statistically significant
- decrease of radioligand uptake in brain (σ1 receptors [3]; 2.5 μmol / kg i.v., 60 min): 14%
- decrease of radioligand uptake in heart (σ1 receptors [3]; 2.5 μmol / kg i.v., 60 min): 15%
- decrease of radioligand uptake in muscle (σ1 receptors [3]; 2.5 μmol / kg i.v., 60 min): 24%
- inhibition of radioligand uptake in spleen, kidney, lung or liver (σ1 receptors [3]; 2.5 μmol / kg i.v., 60 min): did not inhibit
- adverse effects or abnormal behaviors (σ1 receptors [3]; 2.5 μmol / kg i.v.): No adverse effects or abnormal behaviors
- IC50 [1, 9]: 9850 ± 807 nM
- Ki [1, 10]: 6390 ± 524 nM
- Hill (nH) ([1]; means ± SEM (n = 3 – 6)): 1.1 ± 0.2

SMILES: Cc1ccccc1NC(=N)Nc1ccccc1C [DTG, ditolylguanidine]
- IC50 [1]: 209 ± 14 nM
- Ki [1]: 114 ± 7 nM
- Hill (nH) ([1]; means ± SEM (n = 3 – 6)): 1.0 ± 0.1

SMILES: COc1ccc(CCN2CCN(CCCc3ccccc3)CC2)cc1OC [SA4503, 1-[2-(3,4-dimethoxyphenyl)ethyl]-4-(3-phenylpropyl)piperazine]
- Ki [5]: 50 nM

SMILES: COc1ccc(CCN2CCN(CCCc3ccccc3)CC2)cc1 [YZ-067]
- σ1 receptor affinity relative to SA4503 (σ1 receptors [6]): improved affinity

SMILES: N#Cc1ccc(OCC2CCN(CC=CI)CC2)cc1 [[^123I]-TPCNE, [^123I]-1-(iodopropen-2-yl)-4-[(4-cyanophenoxy)methyl]piperidine]
- Ki (σ1 receptors [6]; read-out: apparent affinity (Ki) for σ1 sites in vitro): 0.67 nM

SMILES: N#Cc1ccc(OCC2CCN(CC=C[123I])CC2)cc1 [[^123I]-TPCNE, [^123I]-1-(iodopropen-2-yl)-4-[(4-cyanophenoxy)methyl]piperidine]
- clearance from human brain (cerebral σ1 receptors): no clearance

SMILES: I/C=C/CN1CCN(CCc2ccc3c(c2)CCO3)CC1 [[^125I]-E-IA-BF-PE-PIPZE, [^125I]-(E)-1-(2-(2,3-dihydrobenzofuran-5-yl)ethyl)-4-(iodoallyl)piperazine]
- Kd (σ1 receptors [7]): 0.042 nM
- Ki (σ1 receptors [8]): 0.43 nM
